In US20080118441A1, “COMPOSITIONS AND METHODS FOR THE TREATMENT OF GASTROINTESTINAL CONDITIONS” (priority 2006, published 2008):

System: symptoms of a gastrointestinal condition
Assay: ingestion of glutamine shortly after the present compositions
Type: in vivo
Conditions: glutamine ingested shortly after the compositions
Excerpt: In one example, the symptoms of a gastrointestinal condition will reappear rapidly if glutamine is ingested shortly after the present compositions. Exclusion of glutamine from the present compositions is therefore contemplated, and it may be advisable for persons being treated with the present compositions to reduce dietary consumption of glutamine, especially within one hour of ingesting the disclosed composition. Typically, an average person consumes 5-10 grams glutamine per day. In one embodiment, a person being treated with the present composition consumes no glutamine within one hour of ingestion, and preferably consumes less than about 5 grams glutamine per day, more preferably less than about 4.5 grams glutamine per day, and most preferably less than about 4 grams glutamine per day.

SMILES: NC(=O)CC[C@H](N)C(=O)O [glutamine]
- effect on the therapeutic effect of the disclosed compositions: counteracts the therapeutic effect
